# Experimental data published in patent US11299480B2, “2-arylsulfonamido-N-arylacetamide derivatized STAT3 inhibitors” (University of Hawaii, priority 2017, dated 2022).
# Target: Stat3 (Mus musculus, UniProt P42227)
# Test: not given
# Format: biochemical
# Conditions: EMSA; read-out: IC50, inhibition of Stat3 DNA-binding activity in vitro
# Experimental: FIG. 1. Effect of select compounds of the present invention on Stat3 DNA-binding activity in vitro. […] Positions of Stat3:DNA complexes in gel are labeled; control lanes (0) represent nuclear extracts pre-treated with 10% DMSO.
# Except where indicated, nuclear extracts were pre-incubated with compound for 30 min at room temperature prior to incubation with the radiolabeled probe for 30 min at 30° C. before subjecting to EMSA analysis. Where appropriate, bands corresponding to Stat3:DNA complexes were scanned and quantified for each concentration of compound using ImageJ and plotted as percent of control (DMSO) against concentration of compound, from which the IC50 values were derived.
# Sequence of Stat3 (P42227 2-770 limits assumed): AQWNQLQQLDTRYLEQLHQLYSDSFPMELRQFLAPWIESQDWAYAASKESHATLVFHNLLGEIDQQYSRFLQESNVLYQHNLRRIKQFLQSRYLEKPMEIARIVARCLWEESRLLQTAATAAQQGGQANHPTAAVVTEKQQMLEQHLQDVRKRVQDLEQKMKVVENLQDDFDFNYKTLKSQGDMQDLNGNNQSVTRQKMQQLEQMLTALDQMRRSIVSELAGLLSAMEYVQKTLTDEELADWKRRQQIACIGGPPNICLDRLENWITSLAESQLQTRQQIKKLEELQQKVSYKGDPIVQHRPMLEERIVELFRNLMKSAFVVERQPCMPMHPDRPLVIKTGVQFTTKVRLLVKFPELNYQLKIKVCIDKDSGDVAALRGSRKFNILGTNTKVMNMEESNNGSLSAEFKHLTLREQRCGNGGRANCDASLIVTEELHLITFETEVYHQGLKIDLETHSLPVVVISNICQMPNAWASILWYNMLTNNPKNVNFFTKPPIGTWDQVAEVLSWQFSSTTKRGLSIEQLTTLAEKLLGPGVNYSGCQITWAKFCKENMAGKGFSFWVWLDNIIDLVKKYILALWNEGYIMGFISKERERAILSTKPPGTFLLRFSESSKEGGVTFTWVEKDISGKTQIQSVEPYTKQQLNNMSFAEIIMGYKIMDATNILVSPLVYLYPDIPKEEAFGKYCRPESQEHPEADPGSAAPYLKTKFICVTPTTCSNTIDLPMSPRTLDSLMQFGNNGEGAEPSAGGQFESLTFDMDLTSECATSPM
row,IC50,SMILES
1,0.664 ± 0.167 µM,"NC(=O)c1ccc(N(Cc2ccc(C3CCCCC3)cn2)C(=O)[C@H]2CCN2S(=O)(=O)c2c(F)c(F)c(F)c(F)c2F)cc1O [Example 143, (R)—N-(4-carbamoyl-3-hydroxyphenyl)-N-((5-cyclohexylpyridin-2-yl)methyl)-1-((perfluorophenyl)sulfonyl)azetidine-2-carboxamide]"

# Same assay, conditions: Stat3 DNA-binding activity in vitro; nuclear extracts pre-incubated with compound 30 min at room temperature, hSIE probe; read-out: EMSA IC50
row,SMILES,IC50
1,"O=C(O)c1ccc(N(Cc2ccc(C3CCCCC3)cc2)C(=O)[C@H]2CCCN2S(=O)(=O)c2c(F)c(F)c(F)c(F)c2F)c(F)c1 [Example 39, (R)-4-(N-(4-cyclohexylbenzyl)-1-((perfluorophenyl)sulfonyl)pyrrolidine-2-carboxamido)-3-fluorobenzoic acid]",5.3 ± 0.4 µM
2,"O=C([C@H]1CCN1S(=O)(=O)c1c(F)c(F)c(F)c(F)c1F)N(Cc1ccc(C2CCCCC2)cn1)c1ccc2c(=O)[nH]ncc2c1 [Example 102, (R)—N-((5-cyclohexylpyridin-2-yl)methyl)-N-(1-oxo-1,2-dihydrophthalazin-6-yl)-1-((perfluorophenyl)sulfonyl)azetidine-2-carboxamide]",0.663 ± 0.182 µM
3,"CC(C)(C)c1ccc(CN(C(=O)[C@H]2CCN2S(=O)(=O)c2c(F)c(F)c(F)c(F)c2F)c2ccc(C(=O)O)c(O)c2)cc1 [Example 130, (R)-4-(N-(4-(tert-butyl)benzyl)-1-((perfluorophenyl)sulfonyl)azetidine-2-carboxamido)-2-hydroxybenzoic acid]",2.17 ± 0.298 µM
4,"O=C(O)c1ccc(N(Cc2ccc(C3CCOC3)cc2)C(=O)[C@H]2CCCN2S(=O)(=O)c2c(F)c(F)c(F)c(F)c2F)cc1O (stereo partly drawn) [Example 29, 2-Hydroxy-4-((2R)-1-((pentafluorophenyl)sulfonyl)-N-(4-(tetrahydrofuran-3-yl)benzyl)pyrrolidine-2-carboxamido)benzoic acid]",4.5 ± 1 µM
5,"O=C(O)c1ccc(N(Cc2ccc(C3CCOCC3)cc2)C(=O)[C@H]2CCCN2S(=O)(=O)c2c(F)c(F)c(F)c(F)c2F)cc1O [Example 27, (R)-2-Hydroxy-4-(1-((pentafluorophenyl)sulfonyl)-N-(4-(tetrahydro-2H-pyran-4-yl)benzyl)pyrrolidine-2-carboxamido)benzoic acid]",5.4 µM
6,"O=C(O)c1ccc(N(Cc2ccc(C3CCCC3)cn2)C(=O)[C@H]2CCN2S(=O)(=O)c2c(F)c(F)c(F)c(F)c2F)c(F)c1 [Example 124, (R)-4-(N-((5-cyclopentylpyridin-2-yl)methyl)-1-((perfluorophenyl)sulfonyl)azetidine-2-carboxamido)-3-fluorobenzoic acid]",1.18 ± 0.187 µM
7,"O=C(O)c1ccc(N(Cc2ccc(C3CCCCC3)cc2)C(=O)[C@H]2CCCCN2S(=O)(=O)c2c(F)c(F)c(F)c(F)c2F)cc1O [Example 32, (R)-4-(N-(4-cyclohexylbenzyl)-1-((pentafluorophenyl)sulfonyl)piperidine-2-carboxamido)-2-hydroxybenzoic acid]",5.4 ± 1.6 µM
8,"O=C(O)c1ccc(N(Cc2ccc(C3CCCCC3)cc2)C(=O)[C@H]2CCCN2S(=O)(=O)c2c(F)c(F)c(F)c(F)c2F)cc1Cl [Example 46, (R)-2-chloro-4-(N-(4-cyclohexylbenzyl)-1-((perfluorophenyl)sulfonyl)pyrrolidine-2-carboxamido)benzoic acid]",3.8 ± 0.8 µM
9,"O=C(O)c1ccc(N(Cc2ccc(C3CCCCC3)cn2)C(=O)[C@H]2CCN2S(=O)(=O)c2c(F)c(F)c(F)c(F)c2F)cc1F [Example 116, (R)-4-(N-((5-cyclohexylpyridin-2-yl)methyl)-1-((perfluorophenyl)sulfonyl)azetidine-2-carboxamido)-2-fluorobenzoic acid]",0.856 ± 0.112 µM
10,"CC(C)(C)c1ccc(CN(C(=O)[C@H]2CCN2S(=O)(=O)c2c(F)c(F)c(F)c(F)c2F)c2ccc(C(=O)O)cc2F)cc1 [Example 131, (R)-4-(N-(4-(tert-butyl)benzyl)-1-((perfluorophenyl)sulfonyl)azetidine-2-carboxamido)-3-fluorobenzoic acid]",3.55 ± 0.097 µM

# Results, then the compound that gave them:
row,IC50,SMILES
1,0.664 ± 0.167 µM,"NC(=O)c1ccc(N(Cc2ccc(C3CCCCC3)cn2)C(=O)[C@H]2CCN2S(=O)(=O)c2c(F)c(F)c(F)c(F)c2F)cc1O [Example 143, (R)—N-(4-carbamoyl-3-hydroxyphenyl)-N-((5-cyclohexylpyridin-2-yl)methyl)-1-((perfluorophenyl)sulfonyl)azetidine-2-carboxamide]"
2,0.755 ± 0.11 µM,"O=C(O)c1ccc(N(Cc2ccc(C3CCCCC3)cn2)C(=O)[C@H]2CCN2S(=O)(=O)c2c(F)c(F)c(F)c(F)c2F)c(F)c1 [Example 108, (R)-4-(N-((5-cyclohexylpyridin-2-yl)methyl)-1-((perfluorophenyl)sulfonyl)azetidine-2-carboxamido)-3-fluorobenzoic acid]"
3,4.2 ± 0.7 µM,"Cc1cc(C(=O)O)cc(C)c1N(Cc1ccc(C2CCCCC2)cc1)C(=O)[C@@H](C)N(C)S(=O)(=O)c1c(F)c(F)c(F)c(F)c1F [Example 47, (R)-4-(N-(4-cyclohexylbenzyl)-2-((2,3,4,5,6-pentafluoro-N-methylphenyl)sulfonamido)propanamido)-3,5-dimethylbenzoic acid]"
4,1.32 ± 0.36 µM,"O=C(NO)c1ccc(N(Cc2ccc(C3CCCCC3)cc2)C(=O)[C@H]2CCN2S(=O)(=O)c2c(F)c(F)c(F)c(F)c2F)cc1O [Example 85, (R)—N-(4-cyclohexylbenzyl)-N-(3-hydroxy-4-(hydroxycarbamoyl)phenyl)-1-((perfluorophenyl)sulfonyl)azetidine-2-carboxamide]"
5,2.51 ± 0.23 µM,"O=C(NO)c1ccc(N(Cc2ccc(C3CCCCC3)cc2)C(=O)[C@H]2CCN2S(=O)(=O)c2c(F)c(F)c(F)c(F)c2F)cc1 [Example 83, (R)—N-(4-cyclohexylbenzyl)-N-(4-(hydroxycarbamoyl)phenyl)-1-((perfluorophenyl)sulfonyl)azetidine-2-carboxamide]"
6,1.47 ± 0.151 µM,"O=C([C@H]1CCN1S(=O)(=O)c1c(F)c(F)c(F)c(F)c1F)N(Cc1cnc(C2CCCCC2)cn1)c1ccc2c(=O)[nH]cnc2c1 [Example 151, (R)—N-((5-cyclohexylpyrazin-2-yl)methyl)-N-(4-oxo-3,4-dihydroquinazolin-7-yl)-1-((perfluorophenyl)sulfonyl)azetidine-2-carboxamide]"
7,1.75 ± 0.19 µM,"O=C(NO)c1ccc(N(Cc2ccc(C3CCCCC3)cc2)C(=O)[C@H]2CCN2S(=O)(=O)c2c(F)c(F)c(F)c(F)c2F)c(F)c1 [Example 50, (R)—N-(4-cyclohexylbenzyl)-N-(2-fluoro-4-(hydroxycarbamoyl)phenyl)-1-((perfluorophenyl)sulfonyl)azetidine-2-carboxamide]"
8,2.92 ± 0.12 µM,"O=C(NO)c1ccc(N(Cc2ccc(C3CCOCC3)cc2)C(=O)[C@H]2CCN2S(=O)(=O)c2c(F)c(F)c(F)c(F)c2F)cc1 [Example 87, (R)—N-(4-(hydroxycarbamoyl)phenyl)-1-((perfluorophenyl)sulfonyl)-N-(4-(tetrahydro-2H-pyran-4-yl)benzyl)azetidine-2-carboxamide]"
9,2.25 ± 0.72 µM,"O=C(NO)c1ccc(N(Cc2ccc(C3CCCC3)cc2)C(=O)[C@H]2CCN2S(=O)(=O)c2c(F)c(F)c(F)c(F)c2F)cc1 [Example 88, (R)—N-(4-cyclopentylbenzyl)-N-(4-(hydroxycarbamoyl)phenyl)-1-((perfluorophenyl)sulfonyl) azetidine-2-carboxamide]"
10,2.11 ± 0.24 µM,"O=C(NO)c1cc(F)c(N(Cc2ccc(C3CCOCC3)cc2)C(=O)[C@H]2CCN2S(=O)(=O)c2c(F)c(F)c(F)c(F)c2F)cc1O [Example 89, (R)—N-(2-fluoro-5-hydroxy-4-(hydroxycarbamoyl)phenyl)-1-((perfluorophenyl)sulfonyl)-N-(4-(tetrahydro-2H-pyran-4-yl)benzyl)azetidine-2-carboxamide]"
11,1.05 ± 0.125 µM,"COC(=O)c1ccc(N(Cc2ccc(C3CCCCC3)nc2)C(=O)[C@H]2CCN2S(=O)(=O)c2c(F)c(F)c(F)c(F)c2F)cc1O [Example 92, Methyl (R)-4-(N-((6-cyclohexylpyridin-3-yl)methyl)-1-((perfluorophenyl)sulfonyl)azetidine-2-carboxamido)-2-hydroxybenzoate]"
12,3.6 ± 0.3 µM,"O=C(O)c1ccc(N(Cc2ccc(C3CCCC3)cc2)C(=O)[C@H]2CCCN2S(=O)(=O)c2c(F)c(F)c(F)c(F)c2F)cc1O [Example 79, (R)-4-(N-(4-cyclopentylbenzyl)-1-((perfluorophenyl)sulfonyl)pyrrolidine-2-carboxamido)-2-hydroxybenzoic acid]"
13,2.07 ± 0.12 µM,"O=C(NO)c1ccc(N(Cc2ccc(C3CCOCC3)cc2)C(=O)[C@H]2CCN2S(=O)(=O)c2c(F)c(F)c(F)c(F)c2F)cc1O [Example 84, (R)—N-(3-hydroxy-4-(hydroxycarbamoyl)phenyl)-1-((perfluorophenyl)sulfonyl)-N-(4-(tetrahydro-2H-pyran-4-yl)benzyl)azetidine-2-carboxamide]"
14,2.35 ± 0.546 µM,"O=C([C@H]1CCN1S(=O)(=O)c1c(F)c(F)c(F)c(F)c1F)N(Cc1ccc(C2CCCCC2)cc1)c1ccc2nc[nH]c2c1 [Example 99, (R)—N-(M-benzo[d]imidazol-6-yl)-N-(4-cyclohexylbenzyl)-1-((perfluorophenyl)sulfonyl)azetidine-2-carboxamide]"

# System: not listed separately
# Test: physchem
# Conditions: simulated gastric fluid (SGF), pH 1.2, simulated gastric fluid
row,solubility,SMILES
1,0.8 µg/mL,"C[C@H](C(=O)N(Cc1ccc(C2CCCCC2)cc1)c1ccc(C(=O)NO)cc1F)N(C)S(=O)(=O)c1c(F)c(F)c(F)c(F)c1F [Example 38, (R)-4-(N-(4-Cyclohexylbenzyl)-2-((2,3,4,5,6-pentafluoro-N-methylphenyl)sulfonamido)propanamido)-3-fluoro-N-hydroxybenzamide]"

# System: not listed separately
# Test: Aqueous solubility (PBS, SGF, SIF)
# Conditions: not given
solubility in PBS buffer pH 7.4,solubility in simulated intestinal fluid (SIF),SMILES
4.7 μg/mL,72 µg/mL,"C[C@H](C(=O)N(Cc1ccc(C2CCCCC2)cc1)c1ccc(C(=O)NO)cc1F)N(C)S(=O)(=O)c1c(F)c(F)c(F)c(F)c1F [Example 38, (R)-4-(N-(4-Cyclohexylbenzyl)-2-((2,3,4,5,6-pentafluoro-N-methylphenyl)sulfonamido)propanamido)-3-fluoro-N-hydroxybenzamide]"

# Same assay, conditions: PBS buffer pH 7.4
row,Solubility PBS,SMILES
1,4.7 micrograms/milliliter,"C[C@H](C(=O)N(Cc1ccc(C2CCCCC2)cc1)c1ccc(C(=O)NO)cc1F)N(C)S(=O)(=O)c1c(F)c(F)c(F)c(F)c1F [Example 38, (R)-4-(N-(4-Cyclohexylbenzyl)-2-((2,3,4,5,6-pentafluoro-N-methylphenyl)sulfonamido)propanamido)-3-fluoro-N-hydroxybenzamide]"

# Same assay, conditions: simulated intestinal fluid
row,Solubility SIF,SMILES
1,72 micrograms/milliliter,"C[C@H](C(=O)N(Cc1ccc(C2CCCCC2)cc1)c1ccc(C(=O)NO)cc1F)N(C)S(=O)(=O)c1c(F)c(F)c(F)c(F)c1F [Example 38, (R)-4-(N-(4-Cyclohexylbenzyl)-2-((2,3,4,5,6-pentafluoro-N-methylphenyl)sulfonamido)propanamido)-3-fluoro-N-hydroxybenzamide]"
